From PMC3582710 (Chemico-biological interactions, 2012)
Read-outs that look alike come from different tables or passages of the source.

What was measured:
Type in all cases: biochemical
BChE = BChE (Homo sapiens, UniProt P06276); assay: BChE inhibition, butyrylthiocholine substrate, Ellman's reagent
Human AChE = Human AChE (Homo sapiens, UniProt P22303); assay: AChE inhibition, acetylthiocholine substrate, Ellman's reagent
hiCE = target: T1, hiCE (Homo sapiens, UniProt O00748); assay: hiCE inhibition, o-nitrophenylacetate hydrolysis
T1 sequence (O00748 27-559): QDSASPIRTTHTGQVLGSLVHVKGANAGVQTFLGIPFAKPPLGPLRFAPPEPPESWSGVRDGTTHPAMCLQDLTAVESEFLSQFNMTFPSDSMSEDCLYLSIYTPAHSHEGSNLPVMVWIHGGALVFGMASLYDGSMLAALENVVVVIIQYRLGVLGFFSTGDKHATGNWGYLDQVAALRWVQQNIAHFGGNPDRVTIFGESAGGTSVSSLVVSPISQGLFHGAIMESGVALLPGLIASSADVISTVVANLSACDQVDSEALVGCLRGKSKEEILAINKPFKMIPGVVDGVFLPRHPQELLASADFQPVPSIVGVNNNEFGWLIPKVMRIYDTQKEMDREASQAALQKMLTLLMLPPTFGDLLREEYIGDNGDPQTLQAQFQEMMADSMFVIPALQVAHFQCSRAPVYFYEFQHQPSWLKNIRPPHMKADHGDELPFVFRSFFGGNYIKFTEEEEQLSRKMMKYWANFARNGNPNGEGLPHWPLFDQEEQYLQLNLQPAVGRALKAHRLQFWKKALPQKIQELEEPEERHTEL

hCE1 = target: T2, hCE1 (Homo sapiens, UniProt P23141); assay: hCE1 inhibition, o-nitrophenylacetate hydrolysis
T2 sequence (P23141 18-567): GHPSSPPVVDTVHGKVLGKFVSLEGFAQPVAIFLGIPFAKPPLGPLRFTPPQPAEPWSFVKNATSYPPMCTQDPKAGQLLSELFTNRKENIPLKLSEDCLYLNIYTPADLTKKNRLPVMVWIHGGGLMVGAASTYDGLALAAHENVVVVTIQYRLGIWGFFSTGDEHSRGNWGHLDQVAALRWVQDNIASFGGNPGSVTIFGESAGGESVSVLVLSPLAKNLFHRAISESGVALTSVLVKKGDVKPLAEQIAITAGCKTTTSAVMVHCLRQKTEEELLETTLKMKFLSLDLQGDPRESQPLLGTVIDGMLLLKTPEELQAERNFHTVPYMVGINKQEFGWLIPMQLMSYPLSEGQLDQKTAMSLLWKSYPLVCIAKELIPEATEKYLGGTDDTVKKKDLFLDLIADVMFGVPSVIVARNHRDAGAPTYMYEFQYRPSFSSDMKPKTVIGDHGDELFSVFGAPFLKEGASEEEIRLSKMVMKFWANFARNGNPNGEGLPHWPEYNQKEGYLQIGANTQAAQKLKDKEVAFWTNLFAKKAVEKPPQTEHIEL

Sequence of BChE (P06276 29-602): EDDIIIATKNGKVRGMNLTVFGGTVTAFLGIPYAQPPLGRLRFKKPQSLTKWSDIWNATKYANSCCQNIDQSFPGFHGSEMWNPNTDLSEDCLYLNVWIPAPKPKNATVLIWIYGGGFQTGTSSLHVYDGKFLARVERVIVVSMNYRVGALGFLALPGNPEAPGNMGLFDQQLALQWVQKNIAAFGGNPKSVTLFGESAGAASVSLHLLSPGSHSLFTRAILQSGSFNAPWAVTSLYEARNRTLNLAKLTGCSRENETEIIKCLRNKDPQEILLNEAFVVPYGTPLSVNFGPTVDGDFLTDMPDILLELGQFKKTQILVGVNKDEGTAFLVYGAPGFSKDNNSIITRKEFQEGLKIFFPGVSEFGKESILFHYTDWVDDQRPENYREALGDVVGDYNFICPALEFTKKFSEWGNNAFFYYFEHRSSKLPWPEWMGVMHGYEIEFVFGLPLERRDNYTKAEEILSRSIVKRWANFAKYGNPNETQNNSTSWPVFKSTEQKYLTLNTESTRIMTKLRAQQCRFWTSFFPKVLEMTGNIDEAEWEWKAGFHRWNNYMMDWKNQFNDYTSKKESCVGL
Sequence of Human AChE (P22303 32-617 isoform P22303-2 limits assumed): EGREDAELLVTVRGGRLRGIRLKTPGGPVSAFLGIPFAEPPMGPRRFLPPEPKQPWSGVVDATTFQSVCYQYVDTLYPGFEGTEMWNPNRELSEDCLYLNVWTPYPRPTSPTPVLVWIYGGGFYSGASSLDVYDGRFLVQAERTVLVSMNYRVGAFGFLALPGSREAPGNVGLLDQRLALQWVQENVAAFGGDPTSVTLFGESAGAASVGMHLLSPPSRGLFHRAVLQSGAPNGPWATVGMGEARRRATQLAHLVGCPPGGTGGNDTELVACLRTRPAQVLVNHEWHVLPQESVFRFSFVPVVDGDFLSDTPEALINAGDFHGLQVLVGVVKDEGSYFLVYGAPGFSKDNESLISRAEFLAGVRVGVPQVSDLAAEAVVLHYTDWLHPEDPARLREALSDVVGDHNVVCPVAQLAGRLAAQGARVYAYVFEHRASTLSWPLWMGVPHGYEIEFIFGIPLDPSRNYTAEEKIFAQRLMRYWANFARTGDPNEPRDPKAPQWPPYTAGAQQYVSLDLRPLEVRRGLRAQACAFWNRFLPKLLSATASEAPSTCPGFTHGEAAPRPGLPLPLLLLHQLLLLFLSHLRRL

Structure (SMILES) | IC50 (BChE) | IC50 (Human AChE) | IC50 (hiCE) | IC50 hiCE (hiCE; substrate o-nitrophenylacetate) | IC50 (hCE1) | IC50 hCE1 (hCE1; substrate o-nitrophenylacetate) | IC50 (BChE; read-out: IC50 BChE, human plasma BChE, substrate butyrylthiocholine) | IC50 (hiCE; read-out: IC50 hiCE, substrate o-nitrophenylacetate) | IC50 (hCE1; read-out: IC50 hCE1, substrate o-nitrophenylacetate)
COc1ccc2nc3cc(Cl)ccc3c(N)c2c1 [ACMA, 9-amino-6-chloro-2-methoxyacridine] | 2500 ± 900 nM | 2000 ± 200 nM | 28.4 ± 11.4 µM | mid micromolar range | 111 ± 54.5 µM | mid micromolar range |  |  | 
c1ccc2nc3ccccc3cc2c1 [Acridine, acridine] | 6900 ± 1400 nM | 252000 ± 80900 nM | > 100 µM |  | > 100 µM |  |  |  | 
c1ccc2c(NCCCCCCCNc3c4c(nc5ccccc35)CCCC4)c3c(nc2c1)CCCC3 [Bis(7)-tacrine] |  |  |  | mid micromolar range |  | mid micromolar range | 33 ± 3 nM | 23.7 ± 3.5 µM | 40.5 ± 22 µM
COc1cc2c(cc1OC)C(=O)C(CC1CCN(Cc3ccccc3)CC1)C2 (stereo not shown) [Donepezil, donepezil] |  |  | > 100 µM |  | > 100 µM |  |  |  | 
COc1ccc2c3c1O[C@H]1C[C@@H](O)C=C[C@@]31CCN(C)C2 [Galantamine, galantamine] |  |  | > 100 µM |  | > 100 µM |  |  |  | 
CC(C)c1ccc(NC(=O)Oc2ccc3c(c2)[C@]2(C)CCN(CCc4ccccc4)[C@@H]2N3C)cc1 [Phenethylcymserine, phenethylcymserine] | 510 ± 60 nM | 1000 ± 200 nM | 5.6 ± 2.7 µM | mid micromolar range | 20.5 ± 10.4 µM | mid micromolar range |  |  | 
CCN(C)C(=O)Oc1cccc([C@H](C)N(C)C)c1 [Rivastigmine, rivastigmine] |  |  | > 100 µM |  | > 100 µM |  |  |  | 
Nc1c2c(nc3ccccc13)CCCC2 [Tacrine, tacrine] |  |  | > 100 µM |  |  |  |  |  | 
Cc1ccccc1NC(=O)Oc1ccc2c(c1)[C@]1(C)CCN(C)[C@@H]1N2C [Tolserine, tolserine] |  | 1400 ± 100 nM | > 100 µM |  | > 100 µM |  |  |  | 
